The values that follow come from article PMC11274943, “Discovery of Benzisothiazolone Derivatives as Bifunctional Inhibitors of HIV-1 Reverse Transcriptase DNA Polymerase and Ribonuclease H Activities” (Biomolecules, 2024).

Data set [1] deals with T1, WT HIV-1 RT RNase H activity (Human immunodeficiency virus type 1 group M subtype B, UniProt P04585).
T1 construct: made in house
In words: biochemical. It counts as biochemical. The note with it: for RNase H Activity IC50: WT RT, mean ± SD, at least three independent experiments. As to the method: (§1) WT (wild-type) RT, and RTs harboring the NNRTI-resistant mutations K101E, K103N, Y181C, Y188C, G190A and P236L, were overexpressed and purified to homogeneity as described previously. The RT concentration was determined spectrophotometrically at 280 nm using an absorbance coefficient of 260,450 M^−1·cm^−1. The 7-hydroxy tropolone derivative 19,616 (2,7-dihydroxy 2,4,6-cyclo-heptatrien-1-one) was purchased from Molecular Diversity Preservation International (Basel, Switzerland). […] The benzisothiazolone derivatives were procured from MolPort (New York, NY, USA) or Enamine (Kyiv, Ukraine). The DNA and RNA oligonucleotides were synthesized and purified by Integrated DNA Technologies (Coralville, IA, USA). All other reagents were of the highest quality available and were used without further purification.
Compounds were screened at a final concentration of 10 µM in 1× assay buffer (50 mM Tris pH 8.0, 60 mM KCl, 5 mM MgCl2) containing 1% DMSO in 384-well Greiner black polystyrene plates (VWR catalog # 82051-272). A total of 10 µL of intermediate diluted compounds (100 µM in 10% DMSO) was transferred into assay plates using the Evolution-3 (EP3) (Perkin Elmer, Waltham, MA, USA) automated liquid handling platform outfitted with a 384-well transfer head. A total of 40 µL of RT-RNase H enzyme (60 ng per well) were then dispensed into each well using the Titertek MAP-C2 reagent dispenser platform (Huntsville, AL, USA). A total of 50 µL of the RNA/DNA duplex (140 nM) substrate was then dispensed into each well using the MAP-C2 dispenser, and the assay plates were then incubated at room temperature for 20 min. After 20 min, the assay was terminated by the addition of 10 µL of 1 M EDTA pH 9.0 stop buffer. Relative fluorescent unit (RFU) signals, Excitation 490 nm and Emission 528 nm (Cutoff 515 nm), were captured on the Spectromax M5e plate reader (Molecular Devices, Menlo, CA, USA). […] The template also calculated the plate signal-to-background (S:B) ratios (mean maximum signal/mean minimum signal) and Z’-factor coefficient HTS performance statistics.
(§2) The following RNA/DNA T/P substrate was used in the present study: an 18-nucleotide RNA template (RNA-18T: 5′-[…]-3′) was annealed to an 18-nucleotide primer (DNA-18T: 5′-[…]-3′), as described previously. Fluorescein and IowaBlack FQTM were covalently attached to the 3′- and 5′-ter-mini of the RNA and DNA oligonucleotides, respectively.
(§3) The FRET-based RNase H cleavage assays were carried out as described previously. Fluorescence was measured with a SpectraMax M2 microplate spectrofluorometer (Molecular Devices, San Jose, CA, USA) using an excitation wavelength of 490 nm and an emission wavelength of 528 nm. Data were analyzed using SoftMax Pro software, version 4.7.1 (Molecular Devices, San Jose, CA, USA).
We implemented a rapid, robust and inexpensive fluorescence-based 384-well assay for the measurement of RT RNase H activity, previously described by Parniak et al.. The substrate comprises an 18-nucleotide 3′-fluorescein-labeled heteropolymeric RNA annealed to a complementary 5′-dabcyl-modified DNA. RT cleaves the RNA strand of this substrate close to the 3′ end, promoting the dissociation of the fluorescein-labeled RNA fragment and generating a detectable fluorescent signal. We used this HTS assay to screen 65,239 compounds at a final concentration of 10 µM.

Data set [2] has as its target T2, WT HIV-1 RT DNA-dependent DNA polymerase activity (Human immunodeficiency virus type 1 group M subtype B, UniProt P04585).
T2 construct: made in house
Nature of the data set: biochemical. It counts as biochemical. To be noted: for Polymerase Activity IC50 (DNA Polymerase): WT RT, mean ± SD, at least three independent experiments. How it is done:
as §1
DDDP assays were also performed using a QuantiFluor ONE based spectrophotometric assay to detect double-stranded DNA synthesized by recombinant HIV-1 RT [14]. The reaction contained 40 nM of a template/primer comprising a 200 nt DNA template (5′-[…] […]-[…]-[…] […] […]-3′) annealed to an 18-nucleotide DNA primer (5′-[…]-3′), and a mix of 50 mM Tris-HCl pH 7.8, 50 mM NaCl, 10 mM MgCl2 and 50 µM dNTP. The reactions were stopped after 45 min by adding the detection reagent containing 1 × Quant-Fluor One (Promega) and 12.5 mM ethylenediaminetet-raacetic acid; the samples were transferred to a 96-well black plate, and fluorescence was measured at excitation/emission (490/535 nm).

In data set [3] the test system is P236L HIV-1 RT RNase H activity. In words: FRET-based RT RNase H cleavage assay, P236L RT. It counts as biochemical. The note with it: P236L RT; fold resistance IC50 mutant/IC50 WT. How it is done:
(§4) WT (wild-type) RT, and RTs harboring the NNRTI-resistant mutations K101E, K103N, Y181C, Y188C, G190A and P236L, were overexpressed and purified to homogeneity as described previously. The RT concentration was determined spectrophotometrically at 280 nm using an absorbance coefficient of 260,450 M^−1·cm^−1. The 7-hydroxy tropolone derivative 19,616 (2,7-dihydroxy 2,4,6-cyclo-heptatrien-1-one) was purchased from Molecular Diversity Preservation International (Basel, Switzerland). Nevirapine was purchased from Selleckchem (Houston, TX, USA). The benzisothiazolone derivatives were procured from MolPort (New York, NY, USA) or Enamine (Kyiv, Ukraine). The DNA and RNA oligonucleotides were synthesized and purified by Integrated DNA Technologies (Coralville, IA, USA). All other reagents were of the highest quality available and were used without further purification.
as §2, §3

For data set [4], the target named is T3, P236L HIV-1 RT RNase H activity (Human immunodeficiency virus type 1 group M subtype B, UniProt P04585, P823L).
T3 construct: made in house
In words: FRET-based RT RNase H cleavage assay, P236L RT. It counts as biochemical. How it is done:
as §4, §2, §3

For data set [5], the system named is Y181C HIV-1 RT RNase H activity. In words: FRET-based RT RNase H cleavage assay, Y181C RT. It counts as biochemical. The note with it: Y181C RT; fold resistance IC50 mutant/IC50 WT. How it is done:
as §4, §2, §3

In data set [6] the target is T4, Y181C HIV-1 RT RNase H activity (Human immunodeficiency virus type 1 group M subtype B, UniProt P04585, Y768C).
T4 construct: made in house
Nature of the data set: FRET-based RT RNase H cleavage assay, Y181C RT. It counts as biochemical. How it is done:
as §4, §2, §3

Data set [7] deals with T5, K101E HIV-1 RT RNase H activity (Human immunodeficiency virus type 1 group M subtype B, UniProt P04585, K688E).
T5 construct: made in house
In words: FRET-based RT RNase H cleavage assay, K101E RT. It counts as biochemical. How it is done: as §4, §2, §3

Data set [8] has as its system K101E HIV-1 RT RNase H activity. Nature of the data set: FRET-based RT RNase H cleavage assay, K101E RT. It counts as biochemical. The note with it: K101E RT; fold resistance IC50 mutant/IC50 WT. How it is done: as §4, §2, §3
The subject of data set [9] is G190A HIV-1 RT RNase H activity. In words: FRET-based RT RNase H cleavage assay, G190A RT. It counts as biochemical. To be noted: G190A RT; fold resistance IC50 mutant/IC50 WT. As to the method:
as §4, §2, §3

The target in data set [10] is T6, G190A HIV-1 RT RNase H activity (Human immunodeficiency virus type 1 group M subtype B, UniProt P04585, G777A).
T6 construct: made in house
In words: FRET-based RT RNase H cleavage assay, G190A RT. It counts as biochemical. How it is done:
as §4, §2, §3

Data set [11] has as its target T7, K103N HIV-1 RT RNase H activity (Human immunodeficiency virus type 1 group M subtype B, UniProt P04585, K690N).
T7 construct: made in house
In words: FRET-based RT RNase H cleavage assay, K103N RT. It counts as biochemical. As to the method: as §4, §2, §3

For data set [12], the system named is K103N HIV-1 RT RNase H activity. In words: FRET-based RT RNase H cleavage assay, K103N RT. It counts as biochemical. The note with it: K103N RT; fold resistance IC50 mutant/IC50 WT. As to the method: as §4, §2, §3
In data set [13] the test system is Y188C HIV-1 RT RNase H activity. In words: FRET-based RT RNase H cleavage assay, Y188C RT. It counts as biochemical. The note with it: Y188C RT; fold resistance IC50 mutant/IC50 WT. How it is done: as §4, §2, §3
Data set [14] addresses T8, Y188C HIV-1 RT RNase H activity (Human immunodeficiency virus type 1 group M subtype B, UniProt P04585, Y775C).
T8 construct: made in house
Nature of the data set: FRET-based RT RNase H cleavage assay, Y188C RT. It counts as biochemical. As to the method:
as §4, §2, §3

A short description of data set [15]: Cytotoxicity in TZM-bl cells. To be noted: human, TZM-bl cell death. It counts as cell-based. How it is done:
(§5) Next, we re-purchased 10 hit compounds with IC50 values < 1.0 µM for the inhibition of RT RNase H activity that were commercially available in sufficient quantities for further analysis. We assessed their antiviral activity and cytotoxicity in TZM-bl cells, as described previously.

A further data set deals with HIV-1. In words: Antiviral activity (HIV-1 replication) in TZM-bl cells. The note with it: Human immunodeficiency virus 1, mean ± SD. It counts as cell-based. How it is done: The genes for Y181C, Y181I, Y181V and Y181F were cloned into HIV-1LAI. NNRTI susceptibility was determined in TZM-bl cells, as described previously.
as §5

What is called IC50 is the concentration at which inhibition is half-maximal. As for `O=S(=O)(c1cc(-c2nc3ccccc3s2)ccc1Cl)N1CCOCC1` [Compound 10], the IC50 in data set [1] and in data set [2] was more than 81 µM in each case.
For the compound `O=S(=O)(c1cccc(-c2cn3cc(Cl)ccc3n2)c1)N1CCOCC1` [Compound 7], the IC50 in data set [1] and in data set [2] was more than 81 µM each time.
In the case of `O=c1c(O)ccccc1O` [Compound 19619, 2,7-dihydroxy 2,4,6-cyclo-heptatrien-1-one, reference compound], the IC50 turned out to be 8.7 ± 3 µM in data set [1]; 8.9 ± 2.5 µM in data set [4]; 12.1 ± 1.6 µM in data set [6]; 8.1 ± 1.7 µM in data set [7]; 7.1 ± 1.9 µM in data set [10]; 9.4 ± 0.9 µM in [11]. This compound also returned an IC50 in [14] of 5.5 ± 2.4 µM. Moreover, the “Inhibition of RT RNase H Activity Fold-R” value in data set [3] worked out at 1.0; in data set [5], 1.4; in [8] it was 0.9; in data set [9], 0.8; in data set [12], 1.1; in data set [13] it was 0.6.
Usually CC50 stands for the concentration that lowers cell viability or growth by half. One may read the EC50 as the midpoint of the concentration-response curve. A high value points to lower potency in that assay. Compound `Cn1sc2ccccc2c1=O` [Compound 3, 2-methylbenzo[d]isothiazol-3(2H)-one] came in with a CC50 in data set [15] not below 100 µM. Besides, the IC50 in data set [1] was 2.5 ± 0.2 µM; in data set [4], 2.2 ± 0.2 µM; in [6], 2.1 ± 0.3 µM; in [7], 2.2 ± 0.3 µM; in data set [10], 2.4 ± 0.4 µM; in [11], 2.4 ± 0.2 µM. Besides, the results for the IC50 in data set [2] and in data set [14] were more than 81 µM and 5.7 ± 1.2 µM, respectively. Also, the “Inhibition of RT RNase H Activity Fold-R” value in data set [3] is reported as 0.9; in [5] it was 0.8; in data set [8], 0.9; in [9] it was 1.0; in data set [12], 1.0; in [13] it was 2.3. In data set [2], the “Polymerase Activity IC50 (DNA Polymerase)” value (shortened to “Polymerase Activity IC50”) is “completely inactive”. For the same compound, in the data set on HIV-1, the EC50 came out at 28.4 ± 12.3 µM.
`Cc1ccc(-c2nc3ccccc3s2)cc1S(=O)(=O)N1CCOCC1` [Compound 9]: the IC50 in data set [1] and in data set [2] was more than 81 µM in each case.
In the case of `CC1CN(S(=O)(=O)c2cccc(-c3cn4ccccc4n3)c2)CC(C)O1` (stereo not drawn) [Compound 8], the IC50 in data set [1] and in data set [2] was more than 81 µM each time.
For `O=c1c2ccccc2sn1-c1ccc(S(=O)(=O)N2CCCCC2)cc1` [Compound 6], in data set [1], the IC50 is 39.2 ± 21 µM and the “RNase H Activity IC50” value was “modest activity”. For the same compound, in [2], inhibition was half-maximal at 12.2 ± 3.7 µM (IC50) and the “Polymerase Activity IC50” value is “modest activity”.
For `O=S(=O)(c1cccc(-c2nc3ccccc3s2)c1)N1CCCC1` [Compound 11], the values for the IC50 in data set [1] and in data set [2] were more than 81 µM and 62 ± 38 µM, respectively.
Take `O=c1c2ccccc2sn1-c1ccc(S(=O)(=O)N2CCCC2)cc1` [Compound 5]: in data set [1], the IC50 was determined as 15.4 ± 9.2 µM and the “RNase H Activity IC50” value is “modest activity”. For the same compound, in data set [2], the IC50 was 25 ± 25 µM and the “Polymerase Activity IC50” value is listed as “modest activity”.
